The values that follow come from US9789116B2, “Compositions and methods of modulating short-chain dehydrogenase activity” (CASE WESTERN RESERVE UNIVERSITY, priority 2013, dated 2017).

Series [1] relates to wild-type mouse bone marrow. The series can be described thus: Hematopoietic colonies from bone marrow treated ex vivo. The format is cell-based. As to conditions: 1 uM, ex vivo on ice 2 hours; compared with SW033291. The text has this:
Treated marrow is again then plated into methylcellulose for counting of hematopoietic colonies.

Series [2] deals with T1, recombinant 15-PGDH (Homo sapiens (Human), UniProt P15428). The series can be described thus: Inhibition of enzymatic activity of recombinant 15-PGDH in vitro (NADH generation). The format is biochemical.
Series [3] concerns 15-PGDH-luciferase fusion reporter in V9m, LS174T and V503 cells. The series can be described thus: 15-PGDH-luciferase fusion gene reporter induction in colon cancer cell lines. In kind it is cell-based. As to conditions: for luciferase activity of 15-PGDH luciferase fusion cells: V9m, LS174T, V503, various concentrations.
Series [4] concerns the target T1, recombinant 15-PGDH. The series can be described thus: Melting temperature shift of recombinant 15-PGDH (SYPRO Orange). The format is binding.
The test system of a further series is 15-PGDH mRNA. Briefly: 15-PGDH mRNA levels in colon cancer cell lines by real-time PCR. As to conditions: treated colon cancer cell lines, real-time PCR. The format is cell-based. The text has this: In these studies parental cell lines (not containing the 15-PGDH-luciferase reporter) are employed.
In series [5] the test system is A549 cells. Briefly: PGE2 levels in medium of IL1-beta stimulated A549 cells. In kind it is cell-based. As to conditions: for PGE2 induction compared with SW033291: 4 nM to 2500 nM.
The nature of another series: Hepatocyte stability. The format is in vitro ADME. As to conditions: hepatocytes in culture; read-out: Hepatocyte stability T½. Here is the method:
(§1) Time to inhibition refers to the time needed to inhibit the generation of NADH by 15-PGDH from the moment with drug is added into the reaction mix. Delta Tm refers to the shift in melting temperature of recombinant 15-PGDH in the presence of drug (with cofactor NADH also present). Concentration of Full Cell Line Reporter Induction refers to the concentration of drug that needs to be added to reporter cell line to achieve maximal induction of the 15-PGDH-luciferase gene fusion reporter cassette, as measured by luciferase assays. Hepatocyte stability refers to the half-life of compound in the presence of hepatocytes in culture. Toxicity refers to the concentration of compound needed to decrease cell numbers in a cell culture assay.

The next series relates to cell culture. The series can be described thus: Toxicity in a cell culture assay (decrease of cell numbers). In kind it is cell-based. The following applies: concentration needed to decrease cell numbers in a cell culture assay. Here is the method: as §1
Series [6] concerns A549 cells. Briefly: Cellular toxicity on A549 cells by CellTiter-Glo. The format is cell-based. As to conditions: 24 hours, concentrations of up to 10 μM. Here is the method: FIGS. 38(A-C) show assays of cellular toxicity on A549 cells at 24 hours of 15-PGDH inhibitors as assayed by CellTiter-Glo measurement.
For orientation: ATP-based viability assays read luminescence as a measure of living cells.

In series [7] the test system is mouse tissues (colon, bone marrow, liver, lung). The series can be described thus: PGE2 in mouse tissues after IP injection. In kind it is in vivo. As to the method: Shown is measurement by Elisa of PGE2 (ng PGE2/mg of tissue protein) from 4 mouse tissues: lung, liver, colon and bone marrow. […] Tissues were harvested for PGE2 assay at either 2 hour (2 h) or 3 hour (3 h) time points following drug injection.

In another series the test system is lethally irradiated mice. Briefly: Homing of CFSE dye labeled bone marrow cells in lethally irradiated mice. The format is in vivo, mouse. Here is the method: Drugs are administered following radiation, following the transplant, and again at 8 hours after the transplant.
Series [8] can be described thus: Chemical stability in aqueous solutions. In kind it is physicochemical. The following applies: over broad pH range.
A further series in a line: Solubility in water. As to conditions: pH=3. In kind it is physicochemical.
A short description of series [9]: Stability with liver extracts. In kind it is in vitro ADME. As to conditions: incubated with mouse, rat and human liver extracts.
For the next series, the system named is mice. The series can be described thus: Immediate toxicity in mice. In kind it is in vivo. As to conditions: over 24 hours, IP 50 mg/kg body weight.

A word on the IC50: it is the concentration at which inhibition is half-maximal. A word on the solubility: it is the concentration that dissolves in the medium under given conditions. Low readings indicate a poorly soluble substance, high ones a readily soluble substance.

T1 sequence (P15428 whole entry, the tested form may be a part): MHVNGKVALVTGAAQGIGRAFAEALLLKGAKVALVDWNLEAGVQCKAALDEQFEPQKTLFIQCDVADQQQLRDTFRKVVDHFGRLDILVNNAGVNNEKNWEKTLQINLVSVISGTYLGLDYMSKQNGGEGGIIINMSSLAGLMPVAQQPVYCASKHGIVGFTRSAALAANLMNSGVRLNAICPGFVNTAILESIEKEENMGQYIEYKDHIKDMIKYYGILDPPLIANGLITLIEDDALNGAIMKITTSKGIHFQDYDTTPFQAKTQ

As for `CCCCC[C@H](O)/C=C/[C@H]1[C@H](O)CC(=O)[C@@H]1C/C=C\CCCC(=O)O` [PGE2], in [1], the “increase in number of bone marrow derived colonies” value was “lesser increase”.
Consider `CCCC[S@](C)(O)c1sc2nc(-c3cccs3)cc(-c3ccccc3)c2c1N` [SW033291 isomer B], for which, at recombinant 15-PGDH [2], the “IC50 lower than parent racemic mixture” value is reported as 40%. The “concentration at which some residual activity is seen” value in series [3] (V9M, printed 'isomer B', context suggests isomer A) was 3.2 µM. Moreover, in [3] (Vaco-9M (V9M)), the “concentration giving full activity in reporter” value amounted to 0.1 µM. Besides, the melting temperature at recombinant 15-PGDH [4] (Differential Scanning Fluorimetry, shifted from 50.5° C.) was 68 °C.
`COc1ccc(OC)c(N(CC(=O)Nc2cccnc2)S(=O)(=O)c2ccccc2)c1` [SW054384]: the “luciferase activity of 15-PGDH luciferase fusion cells” value in series [3] is recorded as “increase luciferase activity”. Further, the “15-PGDH mRNA levels” value in the series on 15-PGDH mRNA is recorded as “do not in general alter 15-PGDH mRNA levels”. In addition, the “direct binding to 15-PGDH by melting temperature shift” value at recombinant 15-PGDH [4] (10 μM and 100 μM cofactor (NAD, NADH)) is reported as “cannot be demonstrated to bind 15-PGDH”. For the same compound, the “PGE2 level in medium” value with A549 cells [5] (compound added 24 hours before IL1-beta, maintained next 26 hours) was “lower level of PGE2 produced”.
In the case of `O=C(c1ccc2nc(-c3ccccc3)c(-c3ccccc3)nc2c1)N1CCCCC1` [SW145753], in series [3], the “luciferase activity of 15-PGDH luciferase fusion cells” value was “increase luciferase activity”. For the same compound, the “15-PGDH mRNA levels” value in the series on 15-PGDH mRNA is “do not in general alter 15-PGDH mRNA levels”. Besides, the “15-PGDH activity in cells as reflected in PGE2 levels in medium” value in the series on A549 cells [5] (IL1-beta 23 hours, compound added for the last 5 hours) is given as “clear inhibition of 15-PGDH activity in the cells”.
For `CCCC[S+]([O-])c1sc2nc(-c3cccs3)ccc2c1N` (centres unmarked) [SW206980], the half-life in “Hepatocyte stability” is 1.33 h. Besides, the Toxicity with cell culture was above 7.5 µM. Further, the “effect on CellTitre-Glo levels” value in the series with A549 cells [6] is “No effect”.
On to `CCCC[S+]([O-])c1sc2nc(-c3nccs3)ccc2c1N` (centres unmarked) [SW206992], for which the “Time to inhibition (10 nM)” value at recombinant 15-PGDH [2] (time needed to inhibit generation of NADH by 15-PGDH after drug is added) is around 2 min. Further, the “exposure needed for maximal reporter induction” value in series [3] (24 hours, three cell line backgrounds) is at least 1000 nM. Also, the “Concentration for Full Cell Line Reporter Induction” value in [3] (maximal induction of 15-PGDH-luciferase reporter) was above 1 µM. In addition, the melting temperature on recombinant 15-PGDH [4] (10 μM protein, 20 uM compound, 100 μM NAD(+), control 49) is on record as 59 degrees. Moreover, in the series with cell culture, the Toxicity is above 7.5 µM. Moreover, the “effect on CellTitre-Glo levels” value in the series with A549 cells [6] was “No effect”.
As for `CCCC[S+]([O-])c1sc2nc(-c3nccs3)cc(-c3nccs3)c2c1N` (centres unmarked) [SW209124, 2-(butylsulfinyl)-4,6-di(thiazol-2-yl)thieno[2,3-b]pyridin-3-amine], in the series with A549 cells [5], the “PGE2 induction compared with SW033291” value is on record as “increased activity relative to SW033291”.
In the case of `CCCC[S+]([O-])c1sc2nc(-c3nccs3)cc(-c3nccn3C)c2c1N` (centres unmarked) [SW209125, 2-(butylsulfinyl)-4-(1-methyl-1H-imidazol-2-yl)-6-(thiazol-2-yl)thieno[2,3-b]pyridin-3-amine], the “PGE2 induction compared with SW033291” value with A549 cells [5] is given as “increased activity relative to SW033291”.
For `CC(=O)OCCCCS(=O)(=O)c1sc2nc(-c3cccs3)cc(-c3ccccc3)c2c1N` [SW209128, 4-((3-amino-4-phenyl-6-(thiophen-2-yl)thieno[2,3-b]pyridin-2-yl)sulfonyl)butyl acetate], the IC50 on recombinant 15-PGDH [2] (read-out: Enzyme Inhibitor IC50 (nM) at 5 nM 15-PGDH, 5 nM recombinant human 15-PGDH) was determined as 4910 nM.
For the compound `CCCCC(C)(C)[C@H](O)/C=C/[C@H]1[C@H](O)CC(=O)[C@@H]1C/C=C\CCCC(=O)O` [dmPGE2, 16,16-dimethyl PGE2], the “increase in number of bone marrow derived colonies” value in series [1] was “slightly greater increase”.
For the compound `CCCC[S+]([O-])c1sc2nc(-c3nccs3)cc(-c3cnc(C)n3C)c2c1N` (centres unmarked) [formula (XIII)], at recombinant 15-PGDH [2] (enzyme concentration approximately 6 nM), the “concentration inhibiting recombinant 15-PGDH” value worked out at 3 nM. Further, the “PGE2 levels in colon, lung, liver and bone marrow” value in [7] (IP dose of 10 mg/kg body weight) is listed as “elevates PGE2 levels”. Also, the “homing of hematopoietic stem cells following bone marrow transplantation” value in the series on lethally irradiated mice (10 mg/kg body weight) is “increases homing”. The “chemical stability in aqueous solutions” value in series [8] was “chemically stable”. Moreover, the solubility in the series “Solubility in water” turned out to be 1000 µg/mL. The “chemical stability with liver extracts” value in [9] is reported as “chemically stable”. In addition, the immediate toxicity entry in the series on mice is “no immediate toxicity”.
`COc1ccc2c(c1)c(CC(=O)O)c(C)n2C(=O)c1ccc(Cl)cc1` [indomethacin, reference compound]: in the series on lethally irradiated mice (SW033291 10 mg/kg IP plus Indomethacin), the “effect of SW033291 on homing in presence of COX inhibitor” value is “near completely blocked”.
Turning to (+) SW209415, the “time of peak PGE2” value in series [7] (IP 0.5, 1.5 or 5 mg/kg) amounted to 3 h. For the same compound, the “induction of PGE2 in lung, liver, colon and bone marrow” value in series [7] (IP 0.5, 1.5 or 5 mg/kg, 2 h and 3 h) is listed as “induction of PGE2 in all 4 tissues tested”.
